ChEMBL document CHEMBL1201862, “PubChem BioAssay data set” (2004)
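Dose response: 5 concentrations. Exposure: 48 h. Format: 96-well plates. Endpoint: linear interpolation; highest concentration if not reached. Here, GI50 denotes the concentration required for 50% inhibition of growth.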 The source made the active and inactive calls. Cut-off read from the data, not from the text of the source: active = GI50 up to about 1.1 µM and inactive = higher.

Tests used:
Test in all cases: inhibition of tumour cell growth, NCI panel, 48 h
[1] = tested on: 786-0
[2] = tested on: CCRF-CEM
[3] = tested on: EKVX
[4] = tested on: HCT-15
[5] = tested on: IGROV-1
[6] = tested on: MDA-MB-231
[7] = tested on: MOLT-4
[8] = tested on: NCI-H226
[9] = tested on: NCI-H522
[10] = tested on: NCI/ADR-RES
[11] = tested on: PC-3
[12] = tested on: RPMI-8226
[13] = tested on: SK-MEL-28
[14] = tested on: SK-MEL-5
[15] = tested on: SNB-19
[16] = tested on: U-251
[17] = tested on: UACC-62
[18] = tested on: K562
[19] = tested on: NCI-H23
[20] = tested on: HCC 2998

SMILES | GI50 [1] | GI50 [2] | GI50 [3] | GI50 [4] [µM] | GI50 [5] | GI50 [6] | GI50 [7] | GI50 [8] | GI50 [9] | GI50 [10] | GI50 [11] | GI50 [12] | GI50 [13] | GI50 [14] | GI50 [15] | GI50 [16] | GI50 [17] | GI50 [18] | GI50 [19] | GI50 [20]
NC(=O)C1=NNc2ccccc2C(=O)N1c1ccccc1 | > 100 µM (inactive) | > 100 µM (inactive) | > 100 µM (inactive) | > 100 | > 100 µM (inactive) | > 100 µM (inactive) | > 100 µM (inactive) | > 100 µM (inactive) | > 100 µM (inactive) | > 100 µM (inactive) | > 100 µM (inactive) | > 100 µM (inactive) | > 100 µM (inactive) | > 100 µM (inactive) | > 100 µM (inactive) | > 100 µM (inactive) | > 100 µM (inactive) |  |  | 
Cc1c(NC(=O)c2cc([N+](=O)[O-])cc([N+](=O)[O-])c2)c(=O)n(-c2ccccc2)n1C | > 100 µM (inactive) | > 100 µM (inactive) |  | 83.9 | 48.8 µM (inactive) | > 100 µM (inactive) | > 100 µM (inactive) | > 100 µM (inactive) |  | > 100 µM (inactive) | 49.8 µM (inactive) | > 100 µM (inactive) | > 100 µM (inactive) | > 100 µM (inactive) | > 100 µM (inactive) | > 100 µM (inactive) | > 100 µM (inactive) | > 100 µM (inactive) | > 100 µM (inactive) | 
CC1(C)C2CCC(CN)(C2)C1N (centres undefined) | > 100 µM (inactive) | > 100 µM (inactive) | > 100 µM (inactive) | > 100 | > 100 µM (inactive) | > 100 µM (inactive) | > 100 µM (inactive) | > 100 µM (inactive) |  | > 100 µM (inactive) | > 100 µM (inactive) | > 100 µM (inactive) | > 100 µM (inactive) | > 100 µM (inactive) | > 100 µM (inactive) | > 100 µM (inactive) | > 100 µM (inactive) | > 100 µM (inactive) | > 100 µM (inactive) | 9.42 µM (inactive)
COc1cc2c(cc1OCCCN1CCOCC1)N=C[C@@H]1CCCN1C2=O | 4.16 µM (inactive) | 2.75 µM (inactive) | 19.4 µM (inactive) | 24.9 |  | 11 µM (inactive) | 4.91 µM (inactive) | 4.66 µM (inactive) | 1.25 µM (inactive) | 35 µM (inactive) | 18.6 µM (inactive) | 2.21 µM (inactive) | 12.6 µM (inactive) | 4.07 µM (inactive) | 18.8 µM (inactive) | 4.41 µM (inactive) | 12.8 µM (inactive) | 4.73 µM (inactive) |  | 
CN1CC=C(OP(=O)(NCc2ccccc2)N(CCCl)CCCl)CC1 (centres undefined) | > 100 µM (inactive) | > 100 µM (inactive) | > 100 µM (inactive) | > 100 | > 100 µM (inactive) | > 100 µM (inactive) | > 100 µM (inactive) | > 100 µM (inactive) |  | > 100 µM (inactive) | > 100 µM (inactive) | > 100 µM (inactive) | 95.3 µM (inactive) |  | > 100 µM (inactive) | > 100 µM (inactive) | > 100 µM (inactive) | > 100 µM (inactive) | > 100 µM (inactive) | > 100 µM (inactive)
O=C1NC(=O)/C(=C\c2ccncc2)N1 | > 100 µM (inactive) |  | > 100 µM (inactive) | > 100 | > 100 µM (inactive) | > 100 µM (inactive) | > 100 µM (inactive) | > 100 µM (inactive) |  | > 100 µM (inactive) | > 100 µM (inactive) |  | > 100 µM (inactive) | > 100 µM (inactive) | > 100 µM (inactive) | > 100 µM (inactive) |  |  | > 100 µM (inactive) | > 100 µM (inactive)
CSc1s[s+]c(SC)c1-c1ccccc1 | 14.1 µM (inactive) | 25.2 µM (inactive) | 14.8 µM (inactive) | 16.4 | 17.6 µM (inactive) | 12.2 µM (inactive) | 46.1 µM (inactive) |  | 11.7 µM (inactive) | 18.7 µM (inactive) | 21.7 µM (inactive) | 19.8 µM (inactive) |  | 15.7 µM (inactive) | 16.6 µM (inactive) | 19.4 µM (inactive) | 13.4 µM (inactive) | 20.2 µM (inactive) | 16.9 µM (inactive) | 5.62 µM (inactive)
Oc1ccc2c(c1)c1c(n2CCN2CCOCC2)-c2ccccc2CC1 | 57.8 µM (inactive) | 32.3 µM (inactive) | 35.5 µM (inactive) | 25.6 | 15.1 µM (inactive) | 29.9 µM (inactive) | 23.9 µM (inactive) | 30.7 µM (inactive) |  | 23.1 µM (inactive) | 29.2 µM (inactive) | 29.8 µM (inactive) | 18.6 µM (inactive) |  | 24.8 µM (inactive) | 25.6 µM (inactive) | 20.7 µM (inactive) | 27.9 µM (inactive) | 27.8 µM (inactive) | 
CC(C)(C)OC(=O)N/C(C=O)=C\C1CCCCC1 | 19.9 µM (inactive) | 29.6 µM (inactive) | 17.2 µM (inactive) | 18.8 | 20.7 µM (inactive) | 19.5 µM (inactive) | 14.8 µM (inactive) | 21.2 µM (inactive) | 45.7 µM (inactive) | 18.3 µM (inactive) | 17.3 µM (inactive) |  | 46.6 µM (inactive) | 15.3 µM (inactive) | 25.1 µM (inactive) | 17.2 µM (inactive) | 15.6 µM (inactive) | 22.6 µM (inactive) | 23.7 µM (inactive) | 19.8 µM (inactive)
BrC(c1cccc2ccccc12)c1cccc2ccccc12 | 13.7 µM (inactive) |  | 16.7 µM (inactive) | 17.7 | 13.8 µM (inactive) | 13.8 µM (inactive) | > 100 µM (inactive) | 17.2 µM (inactive) | 10.9 µM (inactive) | 16.5 µM (inactive) | 22.1 µM (inactive) | > 100 µM (inactive) | 19.5 µM (inactive) | 17.5 µM (inactive) | 43.4 µM (inactive) | 16.9 µM (inactive) | 14.6 µM (inactive) | > 100 µM (inactive) | 19.9 µM (inactive) | 
Nc1cnc2c(c1)c(=O)nc1n2CCS1 | > 100 µM (inactive) | 77.6 µM (inactive) | 39.3 µM (inactive) | > 100 |  | 80 µM (inactive) | > 100 µM (inactive) | > 100 µM (inactive) |  | > 100 µM (inactive) | > 100 µM (inactive) | 74 µM (inactive) | > 100 µM (inactive) | > 100 µM (inactive) | > 100 µM (inactive) | > 100 µM (inactive) | > 100 µM (inactive) | > 100 µM (inactive) | > 100 µM (inactive) | > 100 µM (inactive)
O=C1OCC2=Nc3cccc4cccc(c34)N12 | > 100 µM (inactive) | 49.8 µM (inactive) | 57.1 µM (inactive) | > 100 | > 100 µM (inactive) | > 100 µM (inactive) | > 100 µM (inactive) | > 100 µM (inactive) | 88.9 µM (inactive) | > 100 µM (inactive) | > 100 µM (inactive) |  | > 100 µM (inactive) | > 100 µM (inactive) | > 100 µM (inactive) | > 100 µM (inactive) | > 100 µM (inactive) | > 100 µM (inactive) | > 100 µM (inactive) | > 100 µM (inactive)
CC1(C(=O)O)CCCC1C(=O)O (centres undefined) | > 100 µM (inactive) | > 100 µM (inactive) | > 100 µM (inactive) | > 100 | > 100 µM (inactive) | > 100 µM (inactive) | > 100 µM (inactive) | > 100 µM (inactive) | > 100 µM (inactive) | > 100 µM (inactive) | > 100 µM (inactive) | 4.51 µM (inactive) | > 100 µM (inactive) | > 100 µM (inactive) | > 100 µM (inactive) | > 100 µM (inactive) | > 100 µM (inactive) | > 100 µM (inactive) | > 100 µM (inactive) | 
CC(C)(C)OC(=O)n1cc(C2CNC(=O)C23CCC(=O)N3Cc2ccccc2)c2ccccc21 (centres undefined) | 24.7 µM (inactive) | 25.9 µM (inactive) | 22.4 µM (inactive) |  | 17.3 µM (inactive) | 16.8 µM (inactive) | 36.9 µM (inactive) | 19.9 µM (inactive) | 17.8 µM (inactive) | 32.4 µM (inactive) | 25.6 µM (inactive) | 18.7 µM (inactive) |  | 16.9 µM (inactive) | 33.3 µM (inactive) | 18.7 µM (inactive) | 17.5 µM (inactive) | 41.1 µM (inactive) | 23.2 µM (inactive) | 
CC(=O)c1ccc(/N=N/N2CCCC2)cc1 | > 100 µM (inactive) | > 100 µM (inactive) | > 100 µM (inactive) | > 100 | > 100 µM (inactive) | > 100 µM (inactive) | > 100 µM (inactive) | > 100 µM (inactive) | > 100 µM (inactive) | > 100 µM (inactive) | > 100 µM (inactive) |  |  | > 100 µM (inactive) | > 100 µM (inactive) | > 100 µM (inactive) | > 100 µM (inactive) | > 100 µM (inactive) | > 100 µM (inactive) | > 100 µM (inactive)
CN(/N=C/c1ccnc2ccccc12)c1ccc(Cl)cc1[N+](=O)[O-] | 49.9 µM (inactive) | 50 µM (inactive) | 12.2 µM (inactive) | > 100 | > 100 µM (inactive) | > 100 µM (inactive) | 45.3 µM (inactive) | > 100 µM (inactive) | > 100 µM (inactive) | > 100 µM (inactive) | > 100 µM (inactive) |  |  | 6.12 µM (inactive) | > 100 µM (inactive) | > 100 µM (inactive) | > 100 µM (inactive) | > 100 µM (inactive) | 8.57 µM (inactive) | > 100 µM (inactive)
